From PMC3127140, “In Vivo Anti-Tumor Activity of Polypeptide HM-3 Modified by Different Polyethylene Glycols (PEG)” (International Journal of Molecular Sciences, 2011) come the findings set out here.

Each structure is given as a SMILES string.

The test has as its system Human hepatic carcinoma SMMC-7721 cell line. Nature of the test: Inhibitory effect on growth of human hepatoma SMMC-7721 xenografts in nude mice (tumor weight / tumor volume). The following applies: SMMC-7721 xenograft in BALB/c nude mice, n = 6 per group, i.v. for 21 days, tumors weighed the next day; (W − Wt)/W versus normal saline control; Taxol 10 mg/kg twice a week; HM-3 3 mg/(kg·d) twice a day; ALD-mPEG5k-HM-3 11.4 mg/(kg·d) once a day; ALD-mPEG10k-HM-3 and SC-mPEG10k-HM-3 19.9 mg/(kg·2d) every two days; SC-mPEG20k-HM-3 36.7 mg/(kg·2d) every two days (dose as total PEG conjugate). Type of test: in vivo, BALB/c nude mouse. Here is the method:
Human hepatic carcinoma SMMC-7721 cell line was purchased from American type Cell Culture (ATCC, Shanghai, China) and maintained in Dulbecco’s modified Eagle’s medium (DMEM) with 10% fetal bovine serum and antibiotics. BALB/c nude female mouse (SPF grade, 4–5 w, 20.9 ± 0.492 g) were purchased from the Shanghai Laboratory Animal Center of the Chinese Academy of Sciences.
SMMC-7721 cells were cultured in DMEM medium under 5% CO2/saturated humidified air at 37 °C. Cells were digested with the mixture of the trypsin (0.25%) and EDTA (0.02%) at logarithmic growth phase and passaged every 3–4 day. […]
All the mice (20 g) were administrated intravenously for 21 days and the tumor volumes were measured every two days. […] Antitumor ratio determined by the tumor volumes is (V − Vt)/V (V is the average tumor volume of the control group, and Vt is the average tumor volume of the treated group). The antitumor ratio by the tumor weights was also calculated as (W − Wt)/W (W is the average tumor weight of the control group, and Wt is the average tumor weight of the treatment group).
The data was analyzed using the statistics software SPSS13.0, which are expressed as mean ± SD. Statistical significance was assessed using the Student t test. […]

Take `CC(=O)O[C@H]1C(=O)[C@@]2(C)[C@H]([C@H](OC(=O)c3ccccc3)[C@]3(O)C[C@H](OC(=O)[C@H](O)[C@@H](NC(=O)c4ccccc4)c4ccccc4)C(C)=C1C3(C)C)[C@]1(OC(C)=O)CO[C@@H]1C[C@@H]2O` [Taxol, paclitaxel]: the “Tumor weight inhibition rate (inhibition rate of average tumor weight)” value worked out at 44.50%.
